Experimental data: patent US20120005128A1, “METHODS FOR REDUCING THE RISK OF AN ADVERSE DRONEDARONE / CALCIUM CHANNEL BLOCKERS INTERACTION IN A PATIENT SUFFERING FROM ATRIAL FIBRILATION” (sanofi, priority 2010, published 2012)
Where a name gives a salt, the structure may show the parent alone.

Experiments:
[1] = 12-lead ECG (PR, QTcF intervals) in dronedarone/verapamil interaction study, Day 14; conditions: baseline Day 1, -0.5 h, least square means
[2] = ATHENA clinical study, patients with calcium channel blockers baseline medication; assay type: in vivo
Excerpt: Calcium channel blockers have been used in ATHENA clinical study and at the same rate in the dronedarone group and in the placebo group. About 13 to 20% of the patients had received one of these compounds during the study.
In the ATHENA trial, the concomitant administration of calcium antagonists and dronedarone was done according to the above mentioned instructions, i.e. start with low doses of the calcium antagonist and then increase the dose after ECG verification of good tolerability, if necessary and based on individual patient characteristics.
The relative risk (RR) was estimated using Cox's […] regression model.
The relative risk (RR) is the ratio of the rates of occurrence of a hospitalization or of a death among the patients on dronedarone, relative to the patients on placebo.
The percentage reduction x of a given event (hospitalization, death, cardiovascular death, etc.) is calculated in the following way: […]

[3] = Dronedarone/verapamil pharmacokinetic interaction crossover study, plasma PK on Day 14
[4] = 331 patients with calcium channel blockers baseline medication, 122 events in placebo group (307 patients)
[5] = versus placebo, Cox model, calcium channel blockers baseline medication
[6] = versus placebo, calcium channel blockers baseline medication
[7] = dronedarone plus verapamil versus dronedarone alone
[8] = verapamil plus dronedarone versus verapamil alone

## COc1ccc(CCN(C)CCCC(C#N)(c2ccc(OC)c(OC)c2)C(C)C)cc1OC (stereo not drawn) [VP, verapamil]
[1]
  Mean change (Eavr) in PR from baseline: 4.2 ms
  Mean change (Eavr) in QTcF from baseline: 2.1 ms

## CCCCc1oc2ccc(NS(C)(=O)=O)cc2c1C(=O)c1ccc(OCCCN(CCCC)CCCC)cc1 [dronedarone hydrochloride]
[2]; 331 patients with calcium channel blockers baseline medication, 23 events in placebo group (307 patients)
  Number of events, hospitalization for congestive heart failure (CHF): 14
[2]; [4]
  Number of events, cardiovascular hospitalization or death: 90
  Number of events, death: 90
[2]; [5]
  Relative risk, cardiovascular hospitalization or death: 0.628
  Relative risk, death: 0.628
  Relative risk, hospitalization for congestive heart failure (CHF): 0.556
[2]; [6]
  Decrease of CHF: 44%
  Decrease of cardiovascular hospitalization or death: 37%
  Decrease of death: 37%

## CCCCc1oc2ccc(NS(C)(=O)=O)cc2c1C(=O)c1ccc(OCCCN(CCCC)CCCC)cc1 [Dronedarone, 2-n-Butyl-3-[4-(3-di-n-butylaminopropoxy)benzoyl]-5-methylsulphonamidobenzofuran]
[2]; patients using both dronedarone and calcium antagonists
  Risk of hypotension, bradycardia and heart failure: no increase of the risk of hypotension, bradycardia and heart failure
[1]
  Mean change (Eavr) in PR from baseline: 9.7 ms
  Mean change (Eavr) in QTcF from baseline: 22.1 ms
[3]; [7]
  Ratio of geometric means, AUC0-12: 1.48
  Ratio of geometric means, Cmax: 1.42

## COc1ccc(CCNCCCC(C#N)(c2ccc(OC)c(OC)c2)C(C)C)cc1OC (stereo not drawn) [NVP, norverapamil]
[3]; [8]
  Ratio of geometric means, AUC0-24: 1.29
  Ratio of geometric means, Cmax: 1.31
